Experimental data: patent publication US9856216B2, “Compounds as TNIK, IKKε and TBK1 inhibitors and pharmaceutical composition comprising same” (GREEN CROSS CORPORATION, priority 2015, dated 2018)

How the values were obtained:
TBK1 = biological target: T1, TBK1 (Homo sapiens, UniProt Q9UHD2); assay: ADP-Glo Kinase Assay, inhibition activity on TBK1; format: biochemical
T1 construct: purchased Promega V3991
T1 sequence (Q9UHD2 1-729): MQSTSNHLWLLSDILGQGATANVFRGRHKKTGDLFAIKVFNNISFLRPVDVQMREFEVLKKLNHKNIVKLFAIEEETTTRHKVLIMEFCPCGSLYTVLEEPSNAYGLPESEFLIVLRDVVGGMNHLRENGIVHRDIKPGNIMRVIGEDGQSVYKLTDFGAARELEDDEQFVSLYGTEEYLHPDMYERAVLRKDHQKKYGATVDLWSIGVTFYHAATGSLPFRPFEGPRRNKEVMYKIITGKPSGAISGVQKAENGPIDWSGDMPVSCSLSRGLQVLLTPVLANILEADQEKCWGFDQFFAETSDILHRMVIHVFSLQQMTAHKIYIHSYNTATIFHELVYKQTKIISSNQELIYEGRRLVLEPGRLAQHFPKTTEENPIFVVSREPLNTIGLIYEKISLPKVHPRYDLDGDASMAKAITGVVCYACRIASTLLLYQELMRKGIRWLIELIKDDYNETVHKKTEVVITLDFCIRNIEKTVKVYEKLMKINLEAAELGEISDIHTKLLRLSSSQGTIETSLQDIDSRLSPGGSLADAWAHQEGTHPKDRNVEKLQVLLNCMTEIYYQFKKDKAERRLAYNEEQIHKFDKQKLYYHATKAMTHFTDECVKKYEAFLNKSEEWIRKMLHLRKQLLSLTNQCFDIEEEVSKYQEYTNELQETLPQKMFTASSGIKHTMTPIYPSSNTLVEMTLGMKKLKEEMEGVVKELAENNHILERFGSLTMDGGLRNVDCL
Protocol: (§1) The inhibition activities on TNIK, IKKε and TBK1 were measured by a luminometer, TNIK/IKKε/TBK1 Kinase Enzyme System (Promega, Ca# V4158; Invitrogen, PR8031B, Promega, Ca# V3991) and ADP-Glo Kinase Assay using ADP-Glo™ Kinase Analysis Kit (Promega, Ca# V9101) and a kinase reaction buffer [40 mM Tris(pH 7.5), 20 mM MgCl2, 0.1 mg/mL BSA] in accordance with the manufacturer's protocol.

IKKε = biological target: T2, IKKε (Homo sapiens, UniProt Q14164); assay: ADP-Glo Kinase Assay, inhibition activity on IKKε; format: biochemical
T2 construct: purchased Invitrogen PR8031B
T2 sequence (Q14164 1-716): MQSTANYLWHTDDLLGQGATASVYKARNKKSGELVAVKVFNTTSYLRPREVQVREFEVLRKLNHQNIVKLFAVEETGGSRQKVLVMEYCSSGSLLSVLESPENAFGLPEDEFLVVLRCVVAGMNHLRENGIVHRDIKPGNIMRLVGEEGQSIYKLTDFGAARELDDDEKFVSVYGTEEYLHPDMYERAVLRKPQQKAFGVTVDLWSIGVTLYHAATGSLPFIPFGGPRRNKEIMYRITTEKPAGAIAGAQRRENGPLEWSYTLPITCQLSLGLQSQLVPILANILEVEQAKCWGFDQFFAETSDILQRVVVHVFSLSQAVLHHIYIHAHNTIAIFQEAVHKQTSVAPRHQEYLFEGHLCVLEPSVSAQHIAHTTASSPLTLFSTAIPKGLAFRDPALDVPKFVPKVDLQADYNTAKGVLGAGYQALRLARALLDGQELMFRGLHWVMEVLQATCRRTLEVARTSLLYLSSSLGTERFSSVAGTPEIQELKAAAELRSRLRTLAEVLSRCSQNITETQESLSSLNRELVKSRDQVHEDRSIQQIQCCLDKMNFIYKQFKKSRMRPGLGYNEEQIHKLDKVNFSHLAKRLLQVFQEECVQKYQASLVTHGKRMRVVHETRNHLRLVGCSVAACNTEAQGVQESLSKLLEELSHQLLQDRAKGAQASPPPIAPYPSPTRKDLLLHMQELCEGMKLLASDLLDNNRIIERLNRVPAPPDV
Protocol: as §1

IC50 (TBK1)	IC50 (IKKε)	Structure (SMILES)
72 nM	0.16 µM	CC(=O)Nc1ccc(-c2cnc3[nH]cc(-c4ccc(N)c5c4CNC5=O)c3c2)cc1 [Example 85, N-(4-(3-(7-amino-1-oxoisoindolin-4-yl)-1H-pyrrolo[2,3-b]pyridine-5-yl)phenyl)acetamide]
2550 nM	5.97 µM	CCCCN(C)c1ccc(-c2ccnc(Nc3cccc(OC)c3)n2)c2c1C(=O)NC2 [Example 269, 7-(Butyl(methyl)amino)-4-(2-((3-methoxyphenyl)amino)pyrimidin-4-yl)isoindolin-1-one]
> 10000 nM	> 10 µM	CC(=O)Nc1ccc(-c2ccnc(Nc3ccc(C)cc3)n2)c2c1C(=O)NC2 [Example 165, N-(3-oxo-7-(2-(p-tolylamino)pyrimidin-4-yl)isoindolin-4-yl) acetamide]
> 10000 nM	> 10 µM	CN1CCN(c2nccc(-c3ccc(N)c4c3CNC4=O)n2)CC1 [Example 81, 7-Amino-4-(2-(4-methylpiperazin-1-yl)pyrimidin-4-yl) isoindolin-1-one]
